How the values were obtained:
Estrogen receptor = target: T1, Estrogen receptor (Homo sapiens, UniProt P03372); experiment: Binding affinity to untagged human recombinant full length ERalpha expressed in insect cells up to 1 uM by Fluormone ES2 Green displacement based assay
T1 sequence (P03372 whole entry): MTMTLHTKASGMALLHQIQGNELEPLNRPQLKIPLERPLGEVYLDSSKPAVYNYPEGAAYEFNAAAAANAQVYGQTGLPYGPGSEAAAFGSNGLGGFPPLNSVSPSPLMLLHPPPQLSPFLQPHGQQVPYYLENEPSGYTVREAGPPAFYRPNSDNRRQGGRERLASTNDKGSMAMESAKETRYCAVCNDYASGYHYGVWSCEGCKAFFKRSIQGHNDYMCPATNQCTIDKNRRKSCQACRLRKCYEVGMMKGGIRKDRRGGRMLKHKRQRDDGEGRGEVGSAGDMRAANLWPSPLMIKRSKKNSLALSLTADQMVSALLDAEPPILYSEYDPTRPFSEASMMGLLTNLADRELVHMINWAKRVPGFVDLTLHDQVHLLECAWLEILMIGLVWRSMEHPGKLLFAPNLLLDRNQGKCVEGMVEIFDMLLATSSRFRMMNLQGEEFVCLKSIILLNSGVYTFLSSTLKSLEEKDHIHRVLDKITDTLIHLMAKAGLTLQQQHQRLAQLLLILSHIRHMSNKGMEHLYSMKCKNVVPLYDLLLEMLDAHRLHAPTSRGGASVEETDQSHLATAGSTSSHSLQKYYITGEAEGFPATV

[1] = target: T2, Mineralocorticoid receptor (Homo sapiens, UniProt P08235); experiment: Antagonist activity at human MR expressed in CHO-K1 cells assessed as reduction in aldosterone-induced protein interaction between MR and its coactivator SRC at 5 uM incubated for 24 hrs by beta-galactosidase based chemiluminescence assay; type: cell-based; settings: cho-k1, 24 h
T2 sequence (P08235 whole entry): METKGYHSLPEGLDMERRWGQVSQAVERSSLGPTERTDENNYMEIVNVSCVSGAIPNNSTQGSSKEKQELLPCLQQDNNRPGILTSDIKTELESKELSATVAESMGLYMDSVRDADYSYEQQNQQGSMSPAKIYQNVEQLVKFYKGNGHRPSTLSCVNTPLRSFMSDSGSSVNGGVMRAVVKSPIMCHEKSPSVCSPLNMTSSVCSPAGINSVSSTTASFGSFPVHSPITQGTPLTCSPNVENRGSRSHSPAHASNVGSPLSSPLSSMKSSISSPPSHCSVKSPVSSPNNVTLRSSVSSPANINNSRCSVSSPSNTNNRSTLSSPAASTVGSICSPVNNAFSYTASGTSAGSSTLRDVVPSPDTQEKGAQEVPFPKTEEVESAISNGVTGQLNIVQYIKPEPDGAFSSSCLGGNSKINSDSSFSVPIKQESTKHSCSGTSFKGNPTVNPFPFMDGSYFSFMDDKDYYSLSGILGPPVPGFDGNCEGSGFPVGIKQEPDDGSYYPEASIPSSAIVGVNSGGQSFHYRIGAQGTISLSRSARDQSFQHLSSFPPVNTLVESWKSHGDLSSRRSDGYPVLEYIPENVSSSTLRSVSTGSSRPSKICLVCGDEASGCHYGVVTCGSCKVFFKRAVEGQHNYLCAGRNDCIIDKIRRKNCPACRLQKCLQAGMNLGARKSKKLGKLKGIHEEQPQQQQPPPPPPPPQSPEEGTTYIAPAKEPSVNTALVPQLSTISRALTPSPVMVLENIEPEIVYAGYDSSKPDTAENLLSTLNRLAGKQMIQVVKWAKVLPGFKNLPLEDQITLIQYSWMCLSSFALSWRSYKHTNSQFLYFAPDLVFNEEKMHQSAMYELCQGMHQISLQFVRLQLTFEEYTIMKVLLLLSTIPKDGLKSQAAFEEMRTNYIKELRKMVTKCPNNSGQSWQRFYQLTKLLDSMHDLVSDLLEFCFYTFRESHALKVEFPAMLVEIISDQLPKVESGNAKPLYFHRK

Androgen receptor = target: T3, Androgen receptor (Homo sapiens, UniProt P10275); experiment: Antagonist activity at AR (unknown origin) expressed in human LNCaP cells assessed as reduction in R1881-induced response incubated for 20 hrs by luciferase reporter gene assay; type: cell-based
T3 sequence (P10275 whole entry): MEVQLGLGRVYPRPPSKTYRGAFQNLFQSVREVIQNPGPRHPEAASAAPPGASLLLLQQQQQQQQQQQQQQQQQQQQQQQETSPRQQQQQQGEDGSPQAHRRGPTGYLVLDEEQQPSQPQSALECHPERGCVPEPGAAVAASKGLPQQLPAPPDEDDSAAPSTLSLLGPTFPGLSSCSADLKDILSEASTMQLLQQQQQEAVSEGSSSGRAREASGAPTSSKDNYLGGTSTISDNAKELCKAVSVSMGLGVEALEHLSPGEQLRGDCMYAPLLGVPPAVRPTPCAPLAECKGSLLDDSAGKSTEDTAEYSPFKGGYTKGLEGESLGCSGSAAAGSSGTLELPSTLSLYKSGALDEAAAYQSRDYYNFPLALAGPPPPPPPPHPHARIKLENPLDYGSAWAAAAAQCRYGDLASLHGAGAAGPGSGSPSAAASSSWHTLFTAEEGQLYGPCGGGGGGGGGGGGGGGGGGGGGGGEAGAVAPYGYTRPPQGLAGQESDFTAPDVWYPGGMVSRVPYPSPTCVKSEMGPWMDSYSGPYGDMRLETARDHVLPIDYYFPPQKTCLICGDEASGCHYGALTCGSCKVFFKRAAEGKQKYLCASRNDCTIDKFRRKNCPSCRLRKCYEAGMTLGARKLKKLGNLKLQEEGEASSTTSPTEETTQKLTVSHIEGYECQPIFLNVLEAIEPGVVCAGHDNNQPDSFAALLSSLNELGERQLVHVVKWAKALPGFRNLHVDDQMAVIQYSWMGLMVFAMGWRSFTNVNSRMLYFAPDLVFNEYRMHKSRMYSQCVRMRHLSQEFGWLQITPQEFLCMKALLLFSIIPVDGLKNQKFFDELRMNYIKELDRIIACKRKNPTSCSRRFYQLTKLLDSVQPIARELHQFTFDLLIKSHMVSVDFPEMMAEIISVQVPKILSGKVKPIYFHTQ

## CC(C)N(C)c1ccc([C@H]2C[C@@]3(C)[C@@H](CC[C@@]3(O)C#CC(C)(C)C)[C@@H]3CCC4=CC(=O)CC[C@@H]4[C@H]32)cc1
Estrogen receptor
  Activity: Not Active
[1]
  inhibition (INH): Not Active
Androgen receptor
  IC50: 484 nM
